Assay results reported in US20070244076A1, “Site and Rate Selective Prodrug Formulations of D609 with Antioxidant and Anticancer Activity” (priority 2003, published 2007).
pIC50: −log10 of the molar value. Marks after values point to notes of the source that are not given here.

How the values were obtained:
[1] = system: sphingomyelin synthase (SMS); assay: Cellular SMS activity in U937 cells treated with drug; format: cell-based, Human; settings: for inhibition of SMS activity: 177 μM, 0.5, 1 and 2 h
Procedure: Analysis of sphingomyelin synthase (SMS) activity: U937 cells (2×10^6/ml) were cultured with vehicle (0.5% DMSO) or 177 μM D609 or prodrug 2. After 0.5, 1 and 2 h incubation, the cells were harvested, washed and then homogenized in ice-cold lysis buffer (250 mM sucrose; 5 mM HEPES, pH 7.4; 1 mM phenylmethylsulfonyl fluoride; and 20 μg/ml each of chymostatin, leupeptin, antipain, and pepstatin) by 15 passages through a 27-gauge×0.5-inch needle. The cell lysates were first centrifuged at 1000×g for 10 min at 4° C. to remove all the unbroken cells and nuclei. The resultant supernatants were quantified for protein concentration using the Bio-Rad protein assay reagent (Bio-Rad, Hercules, Calif.) and assayed for SMS activity as follows: aliquots of the cell lysates containing 50 μg protein were preincubated for 10 min at 30° C. in a total volume of 50 μl of incubation buffer (50 mM Tris-HCl, pH 7.4; 25 mM KCl; and 0.5 mM EDTA). The reaction was started by addition of 2 nmol NBD C6-ceramide and 12 nmol PC to give a final volume of 50 μl and incubated for 30 min. The reaction was stopped by addition of 200 μl chloroform/methanol (1:1, v/v); the mixture was vortexed and kept on ice. The chloroform/methanol fraction was isolated, and the lipids were resolved by TLC (silica gel) in chloroform:methanol:15 mM CaCl2 (90:52.5:12) (Luberto and Hannun, 1998; Meng et al., 2004). The formation of NBD-C6-sphingomyelin was quantified by determination of the fluorescent intensity of NBD-C6-sphingomyelin using a phosphoimager. Values for blanks were subtracted from total values of NBD-C6-sphingmyelin to yield the amount of NBD-C6-sphingmyelin produced in each sample.
To validate if inhibition of SMS may mediate D609-induced tumor cell death, the cellular level of SMS activity in U937 cells treated with vehicle or D609 were studied. […] NBD-C6-ceramide and PC were incubated with the cell lysates containing 50 μg proteins for 30 min at 30° C. The formation of NBD-C6-sphingomyelin was analyzed by TLC and quantified by determination of the fluorescent intensity of NBD-C6-sphingomyelin using a phosphoimager. The results, shown in FIGS. 10B-10D, are expressed as percent of the control cultures with vehicle and presented as means±SEM (n=3). […] The levels of ceramide (FIG. 10B) and DAG (FIG. 10C) were analyzed by the DAG kinase assay, normalized to the levels of cellular phospholipid and expressed as pmole/nmole phophate (pi) or the ratio of ceramide and DAG (FIG. 10D). The results represent means±SEM (n=3).

U937 cells = assay: U937 apoptosis, sub-G0/1 cells by flow cytometry; format: cell-based, Human; settings: 177 μM, 24 h
Procedure: Apoptosis Assays: U937 cells (5×10^5/ml) were cultured with vehicle (0.5% DMSO) or 177 μM D609 or prodrug 2. After 24 h incubation, the cells were harvested, washed and then fixed in 70% ethanol at 4° C. for 24 h. They were stained with a PI staining solution (PBS containing PI 50 μg/ml; RNase A 100 U/ml; and 0.1 mM EDTA) for 2 h at room temperature before flow cytometric analysis (10,000 events/sample). The percentage of apoptotic cells was determined by quantification of the sub-G0/1 population using a FACS Caliber (Becton Dickinson, San Jose, Calif.).

[2] = system: ceramide levels in U937 cells; assay: Ceramide profile in U937 cells by ESI/MS/MS; format: cell-based, Human; settings: for increase in the level of total ceramide compared to vehicle-treated cells: 177 μM; for C14-Cer / C16-Cer / C18-Cer / C20-Cer / C24-Cer / C24:1-Cer / Total-Cer / dhC16-Cer: 177 µM, 4 h
Procedure: ESI/MS/MS analysis of ceramide was performed on a Thermo Finnigan TSQ 7000 triple quadruple mass spectrometer, operating in a multiple reaction monitoring (MRM) positive ionization mode. U937 cells (4×10^6/sample) were washed twice with PBS after they were harvested from cultures. […] An aliquot of the lipid extracts was taken for inorganic phosphate determination and the remainder was evaporated to dryness and reconstituted in 100 μL of methanol. The reconstituted samples were injected on the Surveyor/TSQ 7000 LC/MS system and gradient was eluted from the BDS Hypersil C8, 150×3.2 mm, 3 μm particle size column, with 1.0 mM methanolic ammonium formate/2 mM aqueous ammonium formate mobile phase system. Peaks for the target analytes and internal standards were collected and processed using the Xcalibur software system. Various species of ceramide were quantified using N-palmitoyl-D-erythro-sphingosine, C13 base (C13 ceramide) and N-heptadecanoyl-D-erythro-sphingosine, C18 base (C18 ceramide) as internal calibration standards. Calibration curves were constructed by plotting peak area ratios of synthetic standards corresponding to each target analyte with respect to the appropriate internal standard. The target analyte peak areas from the samples were similarly normalized to their respective internal standard then compared with the calibration curves using a linear regression model. The results are expressed as pmole ceramide/nmole lipid phosphate (Pi).

[3] = system: STM91-01 malignant rhabdoid tumor cells; assay: MTT cell viability, STM91-01 cells; format: cell-based, human
[4] = system: normal human diploid fibroblasts-WI38 cells; assay: MTT cell viability, WI38 normal fibroblasts; format: cell-based; settings: for LD50: normal cells
[5] = system: Jurkat T-cell leukemia cells; assay: MTT cell viability, Jurkat cells; format: cell-based, human

In the case of `CCCC(=O)OCSC(=S)OC1CC2CC1C1CCCC21` (stereo not shown) [Prodrug 2, S-methyleneoxybutyryl D609], the “inhibition of SMS activity” value [1] was “significantly greater”, the “apoptosis (sub-G0/1 cells)” value (U937 cells) was “significantly greater reduction in cell viability and increase in the sub-G0/1 cells than D609-treated cells” and the “increase in the level of total ceramide compared to vehicle-treated cells” value [2] was 1.84 fold. For the same compound, the C14-Cer [2] was 0.054^a,b pmole ceramide/nmole lipid Pi, the C16-Cer [2] was 1.713^a pmole ceramide/nmole lipid Pi and the C18-Cer [2] was 0.262^a pmole ceramide/nmole lipid Pi. The C20-Cer [2] was 0.031^a pmole ceramide/nmole lipid Pi, the C24-Cer [2] was 0.482^a pmole ceramide/nmole lipid Pi and the “C24:1-Cer” value [2] was 0.863^a,b pmole ceramide/nmole lipid Pi. For the same compound, the Total-Cer [2] was 4.358^a,b pmole ceramide/nmole lipid Pi, the dhC16-Cer [2] was 0.951^a,b pmole ceramide/nmole lipid Pi and the LD50 [3] was 87.10 µM. It also gave an LD50 [4] of 333.43 µM and an LD50 [5] of 44.26 µM.

`S=C([S-])OC1CC2CC1C1CCCC21.[K+]` (stereo not shown) [Prodrug D609, Tricyclodecan-9-yl-xanthogenate] was tested, and the “inhibition of SMS activity” value [1] was “time-dependent inhibition of SMS activity”, the pIC50 ([1]; U937 cells cultured 2 hrs) was roughly 4.05 and the “IC50, SMS activity” value ([1]; U937 cells cultured 2 hrs) was roughly 23.8 µg/mL. For the same compound, the “apoptosis (sub-G0/1 cells)” value (U937 cells) was “capable of inducing apoptosis”, the “increase in the level of total ceramide compared to vehicle-treated cells” value [2] was “about 1.61 fold” and the C14-Cer [2] was 0.038^a pmole ceramide/nmole lipid Pi. For the same compound, the C16-Cer [2] was 1.612^a pmole ceramide/nmole lipid Pi, the C18-Cer [2] was 0.213^a pmole ceramide/nmole lipid Pi and the C20-Cer [2] was 0.036^a pmole ceramide/nmole lipid Pi. For the same compound, the C24-Cer [2] was 0.416 pmole ceramide/nmole lipid Pi, the “C24:1-Cer” value [2] was 0.669^a pmole ceramide/nmole lipid Pi and the Total-Cer [2] was 3.816^a pmole ceramide/nmole lipid Pi. The dhC16-Cer [2] was 0.832^a pmole ceramide/nmole lipid Pi, the LD50 [3] was 545.75 µM and the cell viability ([4]; 48 hours) was “relatively resistant”. The LD50 [4] was 267.51 µM and the LD50 [5] was 63.97 µM.
